Experimental findings from ChEMBL document CHEMBL1125329, “4-Oxospiro[benzopyran-2,4'-piperidines] as class III antiarrhythmic agents. Pharmacological studies on 3,4-dihydro-1'-[2-(benzofurazan-5-yl)- ethyl]-6-methanesulfonamidospiro[(2H)-1-benzopyran-2,4'-piperidin]-4-on e (L-691,121)” (J Med Chem, 1992) are described below.

Assay [1] concerns the target T1, Alpha-1A adrenergic receptor (Bos taurus, UniProt P18130).
T1 sequence (P18130 whole entry): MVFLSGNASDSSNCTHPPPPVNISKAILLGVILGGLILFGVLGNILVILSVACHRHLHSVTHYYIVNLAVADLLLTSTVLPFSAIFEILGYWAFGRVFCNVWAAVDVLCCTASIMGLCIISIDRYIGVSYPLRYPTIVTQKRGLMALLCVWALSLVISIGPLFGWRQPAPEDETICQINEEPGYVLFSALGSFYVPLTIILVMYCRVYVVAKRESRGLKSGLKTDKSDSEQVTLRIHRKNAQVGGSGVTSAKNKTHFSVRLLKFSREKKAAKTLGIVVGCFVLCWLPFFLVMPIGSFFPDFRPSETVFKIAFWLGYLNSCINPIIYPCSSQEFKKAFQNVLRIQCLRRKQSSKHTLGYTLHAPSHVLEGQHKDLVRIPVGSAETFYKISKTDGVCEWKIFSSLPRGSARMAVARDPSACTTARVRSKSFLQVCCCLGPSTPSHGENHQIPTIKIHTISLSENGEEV
Briefly: Compound was evaluated for binding affinity at bovine brain Alpha-1 adrenergic receptor in a filtration-based assay using [3H]prazosin as the radioligand.

A further assay is filed under the species Mustela putorius furo. Briefly: Compound was evaluated for the molar concentration required to prolong effective refractory period (ERP) 25% above baseline in ferret isolated right ventricular papillary muscles using a paired pacing protocol. The format is functional, Muscle tissue.
The test system of a further assay is Canis familiaris. Put plainly: Compound was evaluated for the intravenous dose required to prolong relative refractory period (RRP) 20 ms above baseline in chloralose anesthetized dogs using a paired pacing protocol. The conditions noted are these: Canis lupus familiaris. The format is functional.
Assay [2] addresses T1, Alpha-1A adrenergic receptor. Briefly: Compound was evaluated for binding affinity at bovine brain Alpha-1 adrenergic receptor determined in a filtration-based assay using [3H]prazosin as the radioligand.

pIC50: −log10 of the molar value.

As usually defined, the pIC50 is the negative decadic logarithm of the IC50, by convention in mol/L. The low end stands for a large IC50, the high end for a small IC50. Usually EC25 stands for the point of the concentration-response curve where the effect stands at 25%. Read a low EC25 as an effect from little substance. The compound `CS(=O)(=O)Nc1ccc(CCN2CCC3(CC2)CC(=O)c2cc(NS(C)(=O)=O)ccc2O3)cc1.Cl` showed a pIC50 in assay [1] of 4.82. In addition, in the assay filed under Mustela putorius furo, the EC25 is 74 nM. The compound further yielded an ED20 with Canis familiaris of 3 µg/kg.
On the same counts, the results for `CS(=O)(=O)Nc1ccc2c(c1)C(=O)CC1(CCN(CCc3ccc(C#N)cc3)CC1)O2.Cl` are 6.00, 3 nM and 7 µg/kg.
Consider `CS(=O)(=O)Nc1cccc2c1OC1(CCN(CCc3ccccn3)CC1)CC2=O.Cl.O`, for which, in the assay listed under Mustela putorius furo, the EC25 is 7400 nM.
In the case of `CS(=O)(=O)Nc1ccc2c(c1)C(=O)CC1(CCN(CCc3ccccc3)CC1)O2.Cl`, the pIC50 in assay [1] was 7.00. The compound also had an EC25 in the assay listed under Mustela putorius furo of 7 nM. For the same compound, the ED20 with Canis familiaris amounted to 5 µg/kg.
The compound `CS(=O)(=O)Nc1ccc2c(c1)CCC1(CCN(CCc3ccc4nonc4c3)CC1)O2.Cl` gave a pIC50 in assay [1] of 5.52. In the assay filed under Mustela putorius furo, this compound yielded an EC25 of 54 nM.
`CS(=O)(=O)Nc1ccc2c(c1)C(O)CC1(CCN(CCc3ccc4nonc4c3)CC1)O2.Cl` (centres undefined): the pIC50 in assay [1] is 5.64. The EC25 in the assay filed under Mustela putorius furo is 900 nM. The compound further came in with an ED20 in the assay on Canis familiaris of 200 µg/kg.
In the assay listed under Mustela putorius furo, `CS(=O)(=O)Nc1ccc2c(c1)C(=O)CC1(CCN(CCc3ccc([N+](=O)[O-])cc3)CC1)O2.Cl` gave an EC25 of 5 nM. This compound showed a negative logarithm of the IC50 (pIC50) in assay [2] of 6.05.
The compound `Cl.O=C1CC2(CCN(CCc3ccccn3)CC2)Oc2ccccc21` returned an EC25 in the assay filed under Mustela putorius furo of 160 nM. The compound further showed an ED20 in the assay on Canis familiaris of 500 µg/kg.
In the case of `CS(=O)(=O)Nc1ccc2c(c1)C(=O)CC1(CCN(CCc3ccccn3)CC1)O2.Cl.O`, in assay [1], the negative logarithm of the IC50 (pIC50) was 6.30. Also, the EC25 in the assay filed under Mustela putorius furo was 33 nM. Moreover, the ED20 in the assay on Canis familiaris came out at 10 µg/kg.
`CS(=O)(=O)Nc1ccc2c(c1)C(=O)CC1(CCN(CCc3ccc4nonc4c3)CC1)O2.Cl` gave an EC25 in the assay filed under Mustela putorius furo of 13 nM. Also, in the assay with Canis familiaris, the ED20 was found to be 2.8 µg/kg.
The compound `CS(=O)(=O)Nc1ccc2c(c1)OC1(CCN(CCc3ccccn3)CC1)CC2=O.Cl.O` came in with an EC25 in the assay listed under Mustela putorius furo of 6600 nM.
Compound `Cc1cccc(CCN2CCC(C(=O)c3ccc(NS(C)(=O)=O)cc3)CC2)n1` came in with an EC25 in the assay filed under Mustela putorius furo of 58 nM. Also, the ED20 in the assay with Canis familiaris turned out to be 17.4 µg/kg.
`CN(CCOc1ccc(NS(C)(=O)=O)cc1)CCc1ccc(NS(C)(=O)=O)cc1` [DOFETILIDE] gave an EC25 in the assay listed under Mustela putorius furo of 18 nM. Also, the ED20 with Canis familiaris was found to be 5.2 µg/kg.
